Assay [1] addresses glucose-6-phosphate dehydrogenase (G6PDH) (Leuconostoc mesenteroides, UniProt P11411). Put plainly: Native G6PDH activity. Type of assay: biochemical. The settings on record: increasing DBeQ concentration. As for the experimental part:
G6PDH was chemically denatured by mixing 5 μl of the G6PDH stock solution (441 μM) with 5 μl of buffer A (10 M urea, 16% glycerol, 40-mM DTT) preheated at 47 °C. The samples of G6PDH in buffer A were incubated for 5 min at 47 °C. Subsequently, 5 μl of denatured G6PDH was mixed with 95 μl of buffer B (50-mM Tris-HCl, pH 7.4, 20-mM Mg(OAc)2, 30-mM KCl, 1-mM EDTA, 1-mM β-mercaptoethanol) preheated at 47 °C to initiate protein refolding, which, under these conditions, is inefficient and leads to misfolding and aggregation of G6PDH ([69]). G6PDH aggregate production was arrested after 1 min (for refolding by KJE) or 15 min (for refolding by KJE with ClpB) by transferring into ice for 2 min. […] The plate was inserted into Synergy H1 plate reader (BioTek, Winooski, VT) with the chamber temperature at 30 °C, and the sample absorbance at 340 nm was measured after 10 min. The amount of NADPH produced was calculated based on the NADPH molar extinction coefficient, Ɛ340 = 6220 [M^−1 ⋅ cm^−1]. […]
conditions. The ATPase activity of wt ClpB was determined at 37 and 45 °C as the function of DBeQ concentration. […]
Supplementary Figure 7. […] (A) Firefly luciferase activity was determined in the absence (DMSO) or in the presence 100 µM ClpB inhibitor candidates. […] (B) G6PDH activity was determined in the presence of an increasing concentration of DBeQ and normalized to the DMSO control. […]

Another assay has as its system E. coli dnaK756. Put plainly: Bacterial viability, dnaK756. The assay is classed as cell-based, Escherichia coli. The following applies: 45 °C. The method, then:
E. coli MC4100, MC4100ΔclpB, dnaK103, and dnaK756 strains were used to determine an influence of DBeQ on bacterial growth and viability. Bacteria were maintained in the LB media, and in the case of the MC4100ΔclpB strain, LB was supplemented with 30 μg/ml kanamycin. All experiments were initiated by preparing overnight cultures inoculated from single colonies and grown at 37 °C. The dnaK103 and dnaK756 overnight cultures were grown at 30 °C. On the following day, the cultures were diluted 100-fold in 10 ml of LB without antibiotics and incubated at 37 °C. The culture optical density was monitored at 600 nm. When absorbance at 600 nm reached 0.4, the culture was divided into 1-ml aliquots and supplemented with 10 μl of DMSO or different concentrations of DBeQ in DMSO. The samples were immediately transferred into an incubator/shaker at temperature 37, 45, or 50 °C. Bacteria were cultured for up to 4 h with shaking (200 RPM). At specific time points, 100 μl of each culture was withdrawn and serially diluted in sterile 0.9% NaCl up to 10^6-fold dilution. To estimate the number of viable cells, 5 μl or 10 μl of the diluted cultures was spread on the LB-agar plate without an antibiotic. […] On the following day, the bacterial colonies were counted and the colony-forming units/ml were calculated.

Sequence of glucose-6-phosphate dehydrogenase (G6PDH) (P11411 whole entry): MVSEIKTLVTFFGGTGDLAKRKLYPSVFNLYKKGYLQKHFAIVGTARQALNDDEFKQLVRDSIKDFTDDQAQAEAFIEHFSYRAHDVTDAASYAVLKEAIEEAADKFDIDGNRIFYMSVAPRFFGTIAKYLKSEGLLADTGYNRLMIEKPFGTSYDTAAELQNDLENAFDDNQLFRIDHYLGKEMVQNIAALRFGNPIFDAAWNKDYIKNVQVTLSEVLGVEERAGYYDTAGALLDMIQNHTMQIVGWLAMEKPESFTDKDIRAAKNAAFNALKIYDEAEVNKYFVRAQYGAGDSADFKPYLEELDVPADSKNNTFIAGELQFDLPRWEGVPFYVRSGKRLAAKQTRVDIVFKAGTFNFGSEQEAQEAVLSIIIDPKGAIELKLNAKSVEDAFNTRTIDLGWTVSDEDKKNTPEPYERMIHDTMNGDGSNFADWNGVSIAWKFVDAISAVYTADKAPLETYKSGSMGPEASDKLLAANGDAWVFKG

Take `c1ccc(CNc2nc(NCc3ccccc3)c3ccccc3n2)cc1` [DBeQ, N^2,N^4-dibenzylquinazoline-2,4-diamine]: the “effect on native G6PDH activity” value in assay [1] is listed as “not affected”. Also, the “effect on viability of dnaK756” value in the assay on E. coli dnaK756 was “not affected”.

Values taken from article PMC7948422, “Repurposing p97 inhibitors for chemical modulation of the bacterial ClpB–DnaK bichaperone system” (The Journal of Biological Chemistry, 2020).
